Laboratory results reported in a melting point compilation (Tetko et al.; mined from patent text by program, amines drawn as free bases though some values may be those of a salt).

First: O=C1c2ccccc2C(=O)N1OS(=O)(=O)c1ccccc1
Second: BrC1=Cc2ccccc2Nc2ccccc21
The melting point of the first is higher: 186 °C for the first, 65 to 69 °C for the second.

First: CC(=O)OC1CC=C(CCCCCCC(=O)O)C1=O (stereo not given)
Second: COC1=C(OC)C(=O)C(CCCCCCCCCC(=O)N[C@H](CCC(=O)OCc2ccccc2)C(N)=O)=C(C)C1=O
The melting point of the first is lower: 62 to 65 °C for the first, 83 to 85 °C for the second.

First: CC(C)(C)OC(=O)N[C@@H](Cc1ccccc1)[C@@H](O)CO
Second: O=C1CCC(CCC(=O)OCc2ccccc2)N1 (stereo not given)
The melting point of the first is higher: 95 to 96 °C for the first, 79 to 80 °C for the second.

First: O=C1CC2CCc3cc(-n4ccc(=O)cc4)ccc3C2=NN1 (stereo not given)
Second: C[C@]12C=CC(=O)N[C@@H]1CCc1cc(-c3cccc([N+](=O)[O-])c3)ccc12
The melting point of the first is higher: greater than 300 °C for the first, 205 to 206 °C for the second.

First: COC(=O)NCc1nc(-c2ccc3c(c2)Nc2ccccc2S3)cs1
Second: COCC(=O)Nc1ccc2ncnc(Nc3cccc(I)c3)c2c1
The melting point of the first is lower: 151 to 153 °C for the first, 159 to 163 °C for the second.

First: N#CCCNC(=O)c1cccc(-c2cccc3cc(Cc4cccc(C(F)(F)F)c4)sc23)c1
Second: NS(=O)(=O)c1ccc(-n2nc(C(F)(F)F)cc2-c2nc3cccc(F)c3s2)cc1
The melting point of the first is lower: 95 to 98 °C for the first, 251 to 253 °C for the second.

First: CC(C)(O)c1ccoc1C(=O)c1[nH]c2cc(Cl)ccc2c1CC(=O)O
Second: O=C(O)CN1C(=O)C(=Cc2ccc(Cl)cc2Cl)SC1=S
The melting point of the first is lower: 229 to 230 °C for the first, greater than 237 °C for the second.

Compared with `CC1C(c2ccccc2)NC(c2ccccc2)C(C)C1OC(=O)CCCCCCCCC(=O)OC1C(C)C(c2ccccc2)NC(c2ccccc2)C1C` (stereo not given), `CC[C@H](C)[C@H](NC(=O)OCc1ccccn1)C(=O)NC(Cc1ccccc1)C(O)C(O)C(Cc1ccccc1)NC(=O)[C@@H](NC(=O)OCc1ccccn1)[C@@H](C)CC` (stereo not given in full) is higher in melting point: 128 to 135 °C for the first, 220 to 221 °C for the second.

First: NC(=O)c1cnc2c(NC(=O)c3c(Cl)cccc3Cl)cccc2c1
Second: NNc1ccnc2c(NC(=O)c3ccccc3[N+](=O)[O-])cccc12
The melting point of the first is higher: greater than 250 °C for the first, 198 to 203 °C for the second.

First: Cc1c(-c2ccncn2)nc2n(c1=O)CCCN2CC(=O)c1ccccc1
Second: O=c1c2cc(Cl)ccc2nc2n1CCN2Cc1ccccc1Cl
The melting point of the first is higher: 184 to 185 °C for the first, 173 to 174 °C for the second.

First: COc1ccc2c(c1)C(=O)N(CCCN(C)CCN1C(=O)c3cc(OC)ccc3C(C)(C)C1=O)C(=O)C2(C)C
Second: COc1ccc2c(c1)C(=O)c1ccc(C(=O)O)cc1CC2
The melting point of the first is lower: 142 to 143 °C for the first, 201 to 203 °C for the second.

First: Cc1c(N)c([N+](=O)[O-])cc(F)c1F
Second: Cc1cn(-c2ccc(N)c(C)c2)c(C)n1
The melting point of the first is lower: 87.2 to 88 °C for the first, 92 to 96 °C for the second.

First: CCSC(=NC(=O)c1ccccc1)Nc1ccccc1F
Second: NCCC(=O)N(c1ccccc1)c1ccccc1
The melting point of the first is higher: 95 to 97 °C for the first, 50 °C for the second.

Compared with `COc1cccc(-c2nnc(-c3ccoc3)o2)c1`, `Sc1ccc(OCc2ccccc2)nn1` is higher in melting point: 70 to 71 °C for the first, 155 to 157 °C for the second.

First: Cn1cc(-c2cc3cccnc3[nH]2)c2cc(C(=O)NCCN3CCOCC3)ccc21
Second: N#Cc1cnc2cc(-c3csc(CN4CCOCC4)c3)ccc2c1Nc1ccc(Cc2ccccc2)cc1
The melting point of the first is higher: 268 to 270 °C for the first, 228 to 230 °C for the second.

Compared with `CN1C(=O)C(C)(C)C(=O)Nc2cc(C#N)ccc21`, `Cc1ccc(CNc2c(NC(C)(C)C)c(=O)c2=O)c(C)c1` is lower in melting point: 289 to 294 °C for the first, 228 to 229 °C for the second.

First: O=c1[nH]ncc2cc(Br)ccc12
Second: Cc1nc2cc(C(C)C)ccc2n1C
The melting point of the first is higher: 280 to 283 °C for the first, 130 to 131 °C for the second.

Compared with `O=C(O)CCC(=O)N1Cc2c(cc3ccc4c(c3c2-c2ccc3c(c2)OCO3)OCO4)C1=O`, `COC(=O)c1ccc(Cn2c(=O)c3cc(C#CCc4ccc(OC)cc4)ccc3n3cnnc23)cc1` is higher in melting point: 231 to 233 °C for the first, 249 °C for the second.

First: N#Cc1ccc(C2=NOC(CO)C2)c2ccccc12 (stereo not given)
Second: Clc1ccc(C2=Nc3cccnc3Nc3ccccc32)cc1
The melting point of the first is lower: 138 to 139 °C for the first, 203 to 204 °C for the second.

First: CC(C)NC(=O)Nc1cc(-c2c(-c3ccc(F)cc3)nc3cccnn23)ccn1
Second: CCOC(=O)C1=C(c2ccc(-n3nc(C)nc3C)cc2)NC(C)=C(C(=O)Nc2ccccn2)C1c1ccccc1Cl (stereo not given)
The melting point of the first is higher: 222 to 223 °C for the first, 130 °C for the second.

First: Cc1sc(-c2ccccc2)nc1COc1ccc(CON=C(CCC(=O)O)c2ccccc2)cc1
Second: O=C(Nc1cccc(Br)c1)N(Cc1ccccc1)Cc1ccccc1
The melting point of the first is lower: 99 to 100 °C for the first, 102 to 103 °C for the second.

Compared with `C[C@@H]1CN(Cc2ccc(COc3cccc4c3CN(C3CCC(=O)NC3=O)C4=O)cc2)C[C@H](C)O1` (stereo not given in full), `COc1ccc2c(C3CCN(CCCn4c(=O)[nH]c5ccccc54)CC3)noc2c1` is higher in melting point: 164 to 166 °C for the first, 176 to 178 °C for the second.

First: CCCCCCCCCCCCCCCCCCOc1cc(C(=O)OC)cc(C(=O)OC)c1
Second: CCOC(=O)c1ncc2[nH]c3cccc(COC(C)=O)c3c2c1COC
The melting point of the first is lower: 54 to 55 °C for the first, 129 to 133 °C for the second.

First: CC1(C)OC[C@H](COc2nc(Oc3ccc(F)cc3F)nc3[nH]nc(-c4ccccc4Cl)c23)O1
Second: Clc1ccc(CNc2nc(-c3cccc(Cl)n3)nc3ccccc23)cc1
The melting point of the first is lower: 70.1 to 75.9 °C for the first, 187 to 190 °C for the second.

First: CC(C)Oc1cc(OC(C)C)c2c(=O)cc(Sc3ccc(O)cc3)oc2c1
Second: COc1cc(O)c2c(=O)[nH]c(-c3cc(C)c(O)c(C)c3)nc2c1
The melting point of the first is lower: 234 to 236 °C for the first, 291 to 293 °C for the second.

First: CC(C)(C)c1cc(C=C2Sc3ccccc3N(CC(N)=O)C2=O)cc(C(C)(C)C)c1O
Second: COc1ccc(CC(=O)c2cc(OC)c(OC)cc2C)cc1OC
The melting point of the first is higher: 137 to 144 °C for the first, 115 °C for the second.

Compared with `O=C(O)C(=O)CC(=O)c1cccn1Cc1ccc(Br)cc1`, `O=C(O)c1ccccc1NCCCN1c2ccccc2CCc2ccc(Cl)cc21` is lower in melting point: 184 to 185 °C for the first, 176 to 178 °C for the second.

Compared with `CCC(Cn1cncn1)(C(N)=O)c1ccc(Cl)cc1Cl` (stereo not given), `O=C(Cl)N1CC(Sc2ccc(Cl)cc2)C1` is lower in melting point: 164 to 165 °C for the first, 47 to 48 °C for the second.

First: COc1ccc2c(c1)C(=O)OC21CCN(C)CC1
Second: COC(=O)C1C(Sc2ccccc2)CC2CCC1N2C (stereo not given)
The melting point of the first is higher: 123 to 125 °C for the first, 55 to 57 °C for the second.

First: CC(=O)OC[C@H]1OC(O)(Cl)[C@H](NC(=O)c2cccnc2)[C@@H](OC(C)=O)[C@@H]1OC(C)=O (stereo not given in full)
Second: CCCC(=O)C(=CNc1ccc(OCC)c(C)n1)C(=O)OCC
The melting point of the first is higher: 175 to 176 °C for the first, 117 to 120 °C for the second.

First: CN(C)c1cccc(NC(=O)N(C[C@H]2CC[C@H](CN(C(=O)Nc3cccc(N(C)C)c3)C3CCCCCC3)CC2)C2CCCCCC2)c1
Second: O=C(CC1COC1)N[C@H]1CC[C@H](CCN2CCN(c3nccc4c3OCC4)CC2)CC1
The melting point of the first is lower: 151 to 156 °C for the first, 175 °C for the second.

First: ON=C1CCC(c2ccccc2)CC1c1ccccc1 (stereo not given)
Second: c1ccc(-c2ccc(-c3csc(Nc4cc5ccccc5cn4)n3)s2)nc1
The melting point of the first is lower: 214 to 215 °C for the first, 246 to 248 °C for the second.

First: OCC1OC(n2c(Cl)nc3cc(Cl)c(Cl)cc32)C(O)C1O (stereo not given)
Second: O=c1c(NCCCO)c(Cl)cnn1COCc1ccccc1
The melting point of the first is higher: 175 to 176 °C for the first, 54 to 56 °C for the second.

Compared with `Brc1ccc(N2CCN(CCCOc3ccc(C4=NCCO4)cc3)CC2)nn1`, `CC(=O)c1c(C(C)C)nn2ccccc12` is lower in melting point: 169 °C for the first, 74 °C for the second.

First: CCCCC[N+]([O-])=[N+]([O-])CC
Second: C[C@@H](OS(C)(=O)=O)C(=O)N1C(=O)N(C)C[C@H]1C(=O)OC(C)(C)C
The melting point of the first is higher: 184 to 185 °C for the first, 97 to 100 °C for the second.
